Measurements reported in US11911386B2, “Methods of treating B-cell proliferative disorder” (BeiGene Switzerland GmbH, priority 2022, dated 2024).
Where “and” joins values, the source holds several entries; their conditions need not be identical. Equal values may be shown once.

Test system: previously treated B-cell malignancies (CLL/SLL, WM, MCL, MZL)
Experiment: Phase 2 (NCT04116437): investigator-assessed efficacy (ORR, DCR, DOR, PFS, OS)
Type: in vivo, human
Settings: for Months to BOR, median: patients who responded
Experimental: PFS and patient-reported outcomes were assessed as secondary efficacy endpoints.
The study's secondary endpoints were: • ORR, defined as the proportion of patients achieving a best overall response (BOR) of CR, CRi, nodular partial response, partial response (PR), or partial response with lymphocytosis (PR-L) in patients with CLL; CR or PR in patients with SLL, MCL, or MZL; and CR, very good partial response, PR, or minor response (MR) in patients with WM before initiation of subsequent antineoplastic therapy. • DCR, defined as the proportion of patients who attain a BOR of stable disease or better before initiation of subsequent antineoplastic therapy. • Duration of response (DOR), defined as time from […] to date of first documented disease progression or death, whichever occurs first. • PFS, defined as time from first dose date to date of first documented disease progression or death, whichever occurs first. • Time to first response, defined as time from first dose to date of first qualifying response. For example, for a patient who attained a PR-L followed by PR for subsequent assessments, time to first response was the time from first dose to date of first PR-L. • Time to BOR, defined as time from first dose to date of best of overall response.
A patient's BOR was the best response recorded throughout the study prior to initiation of any new anticancer therapy and data cutoff. In some cases, the BOR could only be stable disease (e.g., if the patient was in CR at study entry) because patients were not required to progress prior to entering the study. • ORR was the proportion of patients who attained a BOR of: • PR-L or better (CR, CRi, nodular partial response, PR, PR-L) in patients with CLL; • PR or better (CR, PR) in patients with SLL, MCL, and MZL; • MR or better (CR, very good partial response, PR, MR) in patients with WM.
Per the Safety Analysis Set, patients without postbaseline disease assessment were considered non-responders. DCR was summarized with 95% exact confidence intervals. A sensitivity analysis of DCR was conducted in patients in the Efficacy Evaluable Set; patients who died or discontinued study prior to their first disease assessment due to adverse events were classified as not achieving disease control. An additional sensitivity analysis of DCR excluded patients with low disease burden, as defined above.
The PFS distribution and its related metrics such as median PFS and landmark rates were estimated using the Kaplan-Meier method with censoring rules as defined in Table 29.
Zanubrutinib capsules were taken orally with water and with or without food. Imaging and laboratory assessments at study entry were considered baseline for response assessment; patients were not required to meet criteria for initiation of treatment at study entry.

[1] = Cohort 1 (prior ibrutinib), n = 57
[2] = Cohort 2 (prior acalabrutinib + ibrutinib), n = 7
[3] = Efficacy Evaluable Set, 68 patients

## C=CC(=O)N1CCC([C@@H]2CCNc3c(C(N)=O)c(-c4ccc(Oc5ccccc5)cc4)nn32)CC1 [zanubrutinib, (S)-7-(1-acryloylpiperidin-4-yl)-2-(4-phenoxyphenyl)-4,5,6,7-tetrahydropyrazolo[1,5-a]pyrimidine-3-carboxamide]
160 mg bid group
  DCR: 95.0%
  ORR: 70.0%
320 mg qd group
  DCR: 91.7%
  ORR: 54.2%
Cohort 1
  BOR PD: 1 (1.8) n (%)
  BOR PR-L or better: 36 (63.2) n (%)
  BOR SD: 18 (31.6) n (%)
  Months to first OR, median: 2.92 months
  Months to BOR, median: 5.5 months
[1]
  DCR (SD or better): (94.7, 85.4-98.9) %
  ORR (better than SD): (63.2, 49.3-75.6) %
Cohort 2
  BOR PD: 1 (14.3) n (%)
  BOR PR-L or better: 5 (71.4) n (%)
  BOR SD: 1 (14.3) n (%)
  Months to first OR, median: 3.02 months
  Months to BOR, median: 7.9 months
[2]
  DCR (SD or better): (85.7, 42.1-99.6) %
  ORR (better than SD): (71.4, 29.0-96.3) %
[3]
  BOR better than stable disease (ORR): 67.6%
  BOR of PR: 66.2%
  BOR of stable disease or better (DCR): 95.6%
Total
  BOR PD: 3.1 n (%) and 2 (3.1) n (%)
  BOR PR-L or better: 41 (64.1) n (%)
  BOR SD: 29.7 n (%) and 19 (29.7) n (%)
  Months to first OR, median: 2.96 months
  Months to BOR, median: 5.6 months
Additional analysis
  Median DOR: not reached
  Median PFS: not reached
Additional analysis, 67 patients
  18-month event-free PFS rate: 83.8%
All patients
  Chance of being alive after 24 months: 89.3%
  Estimated probability of responding for at least 12 months: 91.8%
  Median DOR: not reached
Excluding eight patients ineligible for PR due to low baseline disease burden
  ORR: 73.2%
In vivo
  12-month event-free DOR rate: 95.0%
  Median time to first response (better than SD): 3.0 months
overall
  Median PFS: not reached
Overall (clinical study report cut-off)
  PFS event-free rate at 18 months: 80.4%
Patients with WM
  Estimated probability of responding for at least 12 months: 100%
  PFS event-free rate at 18 months: 100%
Patients with WM, 11 patients
  BOR better than stable disease: 90.9%
  BOR of stable disease or better: 100%
  Very good partial response: 45.5%
